Tests used:
[1] = Superoxide anion chemiluminescent assay (hypoxanthine/xanthine oxidase, Lumimax kit); format: biochemical; conditions: means of 6 independent assays
From the text: (§1) The superoxide anion has been measured by a chemiluminescent assay based on the hypoxanthine (HPX)/xanthine oxidase (XOD) reaction using the Lumimax Superoxide Anion Detection Kit (Stratagene, La Jolla, Calif., USA) and following the manufacturer's instructions. Hydroxyl radical scavenger activity has been measured by means of the Fenton reaction for the production of hydroxyl radicals and chemiluminescent dosage (using a Victor^3 chemiluminometer, Wallac, Finland) with luminol. Peroxynitrite ions have been determined by means of dosage with a spontaneous generator of peroxynitrites (3-morpholinosidnonimine hydrochloride; SIN-1) and a stable reagent for the nitroxyl ions (2-(4-carboxyphenyl)-4,4,5,5-tetramethylimidazoline-1-oxyl-3-oxide potassium salt PTIO spin trap) then dosed by means of electron spin resonance (ESR) using a Nippon Denshi JES-FR30. Lipid peroxidation has been generated using Fe^2+ induced-oxygen reactive species, and detected using thiobarbituric acid in accordance with Buege, J A & Aust, S D: Microsomal lipid peroxidation (Methods Enzymol.
(§2) The results are expressed as the concentration inhibiting 50% of activity (IC50), means of 6 independent assays.

[2] = Hydroxyl radical scavenger activity (Fenton reaction, luminol chemiluminescence); format: biochemical; conditions: means of 6 independent assays
From the text: as §1, with “Ajuga reptans Extracts 1 and 2, prepared as described in examples 1 and 2, and isoteupolioside have been used to assess in vitro antioxidant action with specific oxygen radical generating systems such as the superoxide anion (O2^−), the hydroxyl radical (HO^−), the peroxynitrite radical (ONOO^−) and the inhibition of lipid peroxidation. The” for “The”
The Extract 1 and the Extract 2 set forth in Table 4 are derived from Ajuga reptans cell cultures comprising the phenylpropanoids at 90% and 54%, respectively. The results are expressed as the concentration inhibiting 50% of activity (IC50), means of 6 independent assays.

[3] = Peroxynitrite scavenging (SIN-1, PTIO spin trap, ESR); format: biochemical; conditions: means of 6 independent assays
From the text: as §1, §2

[4] = test system: A549 cells (ATCC-CCL185); experiment: BSO-induced oxidative stress, ROS by DCF fluorimetry in A549 cells; format: cell-based, human; conditions: with BSO, control without BSO = 100
Description: 10×10^5 A549 cells (ATCC-CCL185) have been seeded into wells with 3 ml of DMEM/F12K HAM medium (Sigma-Aldrich) with 10% FCS and incubated at 37° C. in a 5% CO2, water vapour saturated atmosphere. After 24 hours the culture medium is replaced by medium supplemented with BSO, which is left in contact with the cells for 20 hours. The medium is once again replaced with medium containing BSO in the presence or absence of the test compound. After 4 hours, quantitative measurement of the ROSs (hydroxyl radicals) is performed by washing the cells with phosphate buffer and then incubating them with 30 μM DCF-DA in buffer solution. At the end of a 15 minute incubation, excess DCF-DA is removed from the cells by washing, prior to measuring the fluorescence emitted.
Antioxidant activity measurements are performed using a (Hitachi F3010) spectrophotometer with excitation at 488 nm and measuring emission at 525 nm, and values are expressed in pmoles, by extrapolation from the calibration curve constructed using known quantities of DCF, and in relation to total cellular protein. Values are thus expressed in % ages with respect to the ROS content of the cells not subjected to treatment with BSO (control) to which are assigned a value of 100.
The Extracts 1 and 2, Teupolioside and Ascorbic Acid were solubilized in phosphate buffer 10 mM at pH 7.4, whereas trolox was solubilized in 0.1% of dimethylsulphoxide and culture medium.

[5] = test system: 3T3 fibroblasts; experiment: BSO-induced oxidative death of 3T3 fibroblasts (MTT); format: cell-based, BALB/c mouse; conditions: 1 mM; BSO 200 μM, 24 hours
[6] = test system: tyrosinase; experiment: Tyrosinase inhibition, oxidation of L-tyrosine to L-DOPA; format: biochemical; conditions: 250 μg/ml
From the text: (§3) The enzyme tyrosinase catalyses the reactions leading to melanin biosynthesis from tyrosine. […] Substances inhibiting tyrosinase activity produce a clearing/bleaching effect on the skin, since they block melanin synthesis. The method used to determine the inhibition of tyrosinase activity in the oxidation reaction of L-tyrosine to L-DOPA is that described in Kim et al. […] Biol. Pharm. […] The method applied for determination of the inhibition of tyrosinase activity in the conversion of L-DOPA to DOPAquinone is that described in Masamoto et al. (Mushroom tyrosinase inhibitory activity of esculetin isolated from seeds of Euphorbia lathyris L. Biosci. Biotechnol. Biochem., 67(3), 631-634, 2003).

[7] = test system: tyrosinase; experiment: Tyrosinase inhibition, conversion of L-DOPA to DOPAquinone; format: biochemical; conditions: 100 μg/ml
From the text: as §3

**Q.** What does the source list for `O=C1c2c(O)cccc2C([C@@H]2O[C@H](CO)[C@@H](O)[C@H](O)[C@H]2O)c2cc(CO)cc(O)c21` (stereo partly shown) [Aloin, reference compound]?
**A.** Superoxide radical (IC50) [1]: 7.6 µg/mL; Hydroxyl radial (IC50) [2]: 2.9 µg/mL; Peroxynitrite radical (IC50) [3]: 12.3 µg/mL

**Q.** Which “% ROS in picomoles” value ([4]; 1 mM) does the source give for `O=C1O[C@H]([C@@H](O)CO)C(O)=C1O` [Ascorbic acid, reference compound] here?
**A.** 130 ± 10 %

**Q.** And the “% survived cells” value [5]?
**A.** 72.3%

**Q.** With `O=c1cc(CO)occ1O` [Kojic acid, reference compound] as the molecule, how does the “Test L-tyrosine-DOPA inhibitory activity (%)” value [6] read?
**A.** 94.1%

**Q.** What about the “Test LDOPA-DOPAquinone inhibitory activity (%)” value [7] of the same molecule?
**A.** 35%

**Q.** With `Oc1cccc(O)c1` [Resorcinol, reference compound] as the molecule, how does the “Test L-tyrosine-DOPA inhibitory activity (%)” value [6] read?
**A.** 56.9%

**Q.** What about the “Test LDOPA-DOPAquinone inhibitory activity (%)” value [7] of the same molecule?
**A.** 0%

**Q.** With `Cc1c(C)c2c(c(C)c1O)CCC(C)(C(=O)O)O2` (stereo not shown) [Trolox] as the molecule, how does the “% ROS in picomoles” value ([4]; 20 μM) read?
**A.** 125 ± 8 %

Source: patent publication US9623063B2, “Extracts from Ajuga reptans cell lines, their preparation and use” (I.R.B. ISTITUTO DI RICERCHE BIOTECNOLOGICHE S.r.l., priority 2005, dated 2017)
